Data taken from patent publication US20090030037A1, “Sustained Release Formulation and Dosing Schedules of Leukotriene Synthesis Inhibitor for Human Therapy” (deCODE Genetics ehf., priority 2005, published 2009).
Where two headings read alike, the source gives them in different places.

Assays:
[1] = asthma patients, cited from earlier work
White blood cell count = experiment: Study DG-031-201: white blood cell count; assay type: in vivo, human; details: difference visit 2 to 5; 500 and 750 mg/day vs placebo
Protocol: Patients who met the study eligibility criteria were enrolled and randomized into 3 different dose-level groups: (1) 64 patients on 250 mg/day therapy with DG-031 (250 mg q.d.), vs placebo; (2) 64 patients on 500 mg/day therapy with DG-031 (250 mg b.i.d.) vs placebo; and (3) 63 patients on 750 mg/day therapy with DG-031 (250 mg t.i.d.) vs placebo. […] All patients received 3 tablets per day. Treatment periods, 4 weeks in duration each, were separated by a 2-week washout period. The placebo tablets were identical in shape, color, form and taste to the active tablets except that they contained no active drug ingredients. Treatment with DG-031 or placebo was in addition to the subject's standard care, including all medications and treatment plan as prescribed by the subject's cardiologist prior to enrolment. A total of 191 subjects were enrolled, with 172 completing all 8 visits or 8 patients short of the target of 180 patients.
All data were analyzed according to a pre-established statistical analysis plan (SAP) and by intention-to-treat (ITT). Each arm of the study, as well as pooled sets (combining dose levels), was considered for the primary analysis. […] The difference between DG-031 and placebo treatment was the primary outcome, assessed separately for each of the biomarkers. […]

Prostaglandin F = experiment: Study DG-031-204: Prostaglandin F (PGF); assay type: in vivo, human; details: after 4 weeks of treatment
Protocol: An additional single site, open label study was carried out to obtain biomarker and safety data on additional DG-031 doses (i.e., 1000 mg and 1500 mg). This study examined the safety, tolerability and dose-related effects of DG-031 on inflammatory biomarkers including: LTB4, hsCRP, and MPO. A total of 119 patients with a prior history of CAD and MI were randomized to receive either 1000 mg DG-031 (500 mg BID) or 1500 mg DG-031 (500 mg TID) daily for 4-6 weeks. Treatment with DG-031 in addition to the subject's standard care, medication, and treatment, was prescribed by the patient's cardiologist. A majority of the subjects received statin therapy before, during and after the study. Follow-up assessments were performed 2 weeks after the end of study drug administration.
The biomarkers were analyzed as described in Example 1. Statistical analysis of the data was carried out using a one-sample t-test on change from baseline with a two-sided nominal significance level of 0.050. Biomarker concentrations were log-transformed and a simple last observation carried forward (LOCF) scheme was used to impute missing observations.
Prostaglandin F (PGF) was measured at 2-week intervals.

[2] = Clinical studies in CAD patients: safety and tolerability; assay type: in vivo, human
Protocol: Previous clinical studies administered the dosages of DG-031 either in a single dose (QD) or twice a day (BID)
A total daily dose of 750 mg, dosed at 250 mg TID, provides a preferable PK/PD relationship (inhibition of LTB4) and efficacy in terms of lowering other biomarkers of MI risk (i.e. MPO and CRP). In addition, a total daily dose of 1000 mg, dosed at 500 mg BID, also provides a preferable PK and PD time course (inhibition of LTB4) and efficacy in terms of lowering other biomarkers of MI risk (i.e. MPO). Patient compliance is an important consideration when designing a dosing schedule and patients are more likely to comply with a twice a day dosing (BID) than three times a day doing (TID).

LTB4 = experiment: Exposure-response analysis: estimated reduction in stimulated LTB4 by DG-031 daily dose; assay type: in vivo, human; details: for Estimated Percent LTB4 Reduction by DG-031 Daily Dose, Mean: stimulated LTB4, mean model prediction from studies DG-031-201 and DG-031-203
Protocol: Administration of DG-031 500 mg BID reduced LTB4 levels to the target 35% reduction, as measured in the ionophore-stimulation assay described in Example 1. The estimated DG-031-induced reduction in stimulated LTB4 levels was based on all the relevant data observed in the DG-031-201 and DG-031-203 studies. The control baseline was 7.8%. The data presented in Table 14 are the mean and the 5th and 95th percentiles based on the mean model prediction (the 90% confidence interval on the estimated LTB4 response).
The pharmacokinetic characteristics of the tested DG-031 formulation result in an observed mean peak concentrations of 8.8 μg/mL and mean trough concentrations of 4.3 μg/mL. (Table 18) The characteristics of the tested formulation leads to prolonged drug absorption that minimizes the peak to trough fluctuation in DG-031 plasma concentration and LTB4 response.

O=C(O)[C@@H](c1ccc(OCc2ccc3ccccc3n2)cc1)C1CCCC1 [DG-031, (R)-(+)-alpha-cyclopentyl-4-(2-quinolinylmethoxy)-Benzeneacetic acid]
Safety and tolerability ([1]; total daily dose 250-1000 mg, 14 days): safe and well tolerated
Safety and tolerability ([1]; total daily doses 100-1000 mg, 14-42 days): safe and well tolerated
Carry-over effect, White blood cell count (White blood cell count): −0.01
Trends in PGF (Prostaglandin F): No significant trends
Safety and tolerability ([2]; 250 mg QD, 375 mg QD, 250 mg BID, 375 mg BID, 250 mg TID): safe and well tolerated
Safety and tolerability ([2]; total daily doses 250, 500, 750 mg, 128 days): safe and well tolerated
Average drug exposure (LTB4; 500 mg BID (1000 mg daily)): 7.6 µg/mL
Reduction in stimulated LTB4 production (LTB4; 500 mg BID, 90% prediction interval −45% to −24%): 37%
Estimated Percent LTB4 Reduction by DG-031 Daily Dose, Mean (LTB4; daily dose 250): −8.7%
Estimated Percent LTB4 Reduction by DG-031 Daily Dose, Mean (LTB4; daily dose 500): −19.4%
Estimated Percent LTB4 Reduction by DG-031 Daily Dose, Mean (LTB4; daily dose 750): −28.8%
Estimated Percent LTB4 Reduction by DG-031 Daily Dose, Mean (LTB4; daily dose 1000): −37.1%
Estimated Percent LTB4 Reduction by DG-031 Daily Dose, Mean (LTB4; daily dose 1250): −44.5%
Estimated Percent LTB4 Reduction by DG-031 Daily Dose, Mean (LTB4; daily dose 1500): −50.9%
